Data: the NIST ThermoML archive (doi:10.1016/j.jct.2013.04.017)
± gives the expanded uncertainty stated by the source.

Columns and labels:
[1] = 313.15 K; 101 kPa; Liquid; Sing-around technique in a fixed-path interferometer
[2] = mn = molality of the nth substance listed, in mol/kg; conditions: 313.15 K; 101 kPa; Liquid; fixed-path interferometer; m2 = 0

SMILES	speed of sound [1] [m/s]	speed of sound [2] [m/s]
O [water]	1528.9 ± 1.1	
O [water] + O=C(O)CC(O)(CC(=O)O)C(=O)O		1528.9 ± 1.1
